Measurements as given in ChEMBL document CHEMBL3885861, “Open TG-GATES”.

Species: Rattus norvegicus
Assay: Open TG-GATES - Regimen: Daily Repeat
Type: toxicity, organism-based, Sprague-Dawley
Parameters: regimen Daily Repeat, gender Male, age 6 weeks
Conditions: in vivo, po, 0 mg/kg, route gavage, dose level Control; for Bas / Eos / Hb / Ht / Lym / MCH / MCHC / MCV / Mono / Neu / Plat / RBC / Ret / WBC: tissue Blood; for KIDNEY_L / KIDNEY_R / KIDNEY_TOTAL: tissue Kidney; for LIVER: tissue Liver; for A/G / ALP / ALT / AST / BUN / CRE / Ca / Cl / DBIL / GLC / IP / K / LDH / Na / PL / RALB / TBIL / TC / TG / TP / gamma-GTP: tissue Plasma

Structure (SMILES): CC(N)=O [ACETAMIDE]
- TERMINAL_BW (72 h, time 3 day): 236.7 g
- Bas (72 h, time 3 day): 0%
- Eos (72 h, time 3 day): 1%
- Hb (72 h, time 3 day): 13.1 g/dL
- Ht (72 h, time 3 day): 40.5%
- Lym (72 h, time 3 day): 71.4%
- MCH (72 h, time 3 day): 20 pg
- MCHC (72 h, time 3 day): 32.4%
- MCV (72 h, time 3 day): 61.6 fL
- Mono (72 h, time 3 day): 3.6%
- Neu (72 h, time 3 day): 23%
- Plat (72 h, time 3 day): 126.3 x10_4/uL
- RBC (72 h, time 3 day): 658.2 x10_4/ul
- Ret (72 h, time 3 day): 7.1%
- WBC (72 h, time 3 day): 126.7 x10_2/uL
- KIDNEY_L (72 h, time 3 day): 1 g
- KIDNEY_R (72 h, time 3 day): 1 g
- KIDNEY_TOTAL (72 h, time 3 day): 2 g
- LIVER (72 h, time 3 day): 11.1 g
- A/G (72 h, time 3 day): 1
- ALP (72 h, time 3 day): 1741.8 IU/L
- ALT (72 h, time 3 day): 39.8 IU/L
- AST (72 h, time 3 day): 71.6 IU/L
- BUN (72 h, time 3 day): 15.2 mg/dL
- CRE (72 h, time 3 day): 0.1 mg/dL
- Ca (72 h, time 3 day): 10.7 mg/dL
- Cl (72 h, time 3 day): 105.6 meq/L
- DBIL (72 h, time 3 day): 0.004 mg/dL
- GLC (72 h, time 3 day): 196 mg/dL
- IP (72 h, time 3 day): 6.7 mg/dL
- K (72 h, time 3 day): 4.4 meq/L
- LDH (72 h, time 3 day): 180.4 IU/L
- Na (72 h, time 3 day): 140.9 meq/L
- PL (72 h, time 3 day): 162.6 mg/dL
- RALB (72 h, time 3 day): 2.8 g/dL
- TBIL (72 h, time 3 day): 0.002 mg/dL
- TC (72 h, time 3 day): 85.2 mg/dL
- TG (72 h, time 3 day): 108.8 mg/dL
- TP (72 h, time 3 day): 5.6 g/dL
- gamma-GTP (72 h, time 3 day): 0.8 IU/L
- TERMINAL_BW ([…], time 7 day): 276.9 g
- TERMINAL_BW ([…], time 14 day): 335.4 g
- TERMINAL_BW ([…], time 28 day): 415.6 g
- Bas ([…], time 7 day): 0%
- Eos ([…], time 7 day): 1%
- Hb ([…], time 7 day): 12.7 g/dL
- Ht ([…], time 7 day): 38.9%
- Lym ([…], time 7 day): 75.2%
- MCH ([…], time 7 day): 19.9 pg
- MCHC ([…], time 7 day): 32.7%
- MCV ([…], time 7 day): 60.8 fL
- Mono ([…], time 7 day): 3.2%
- Neu ([…], time 7 day): 19.8%
- Plat ([…], time 7 day): 131.8 x10_4/uL
- RBC ([…], time 7 day): 640.2 x10_4/ul
- Ret ([…], time 7 day): 6.7%
- WBC ([…], time 7 day): 130.3 x10_2/uL
- Bas ([…], time 14 day): 0%
- Eos ([…], time 14 day): 1%
- Hb ([…], time 14 day): 13.4 g/dL
- Ht ([…], time 14 day): 40.3%
- Lym ([…], time 14 day): 79.8%
- MCH ([…], time 14 day): 19.6 pg
- MCHC ([…], time 14 day): 33.2%
- MCV ([…], time 14 day): 58.9 fL
- Mono ([…], time 14 day): 3%
- Neu ([…], time 14 day): 15.2%
- Plat ([…], time 14 day): 119.7 x10_4/uL
- RBC ([…], time 14 day): 685.6 x10_4/ul
- Ret ([…], time 14 day): 5.2%
- WBC ([…], time 14 day): 124.3 x10_2/uL
- Bas ([…], time 28 day): 0%
- Eos ([…], time 28 day): 1%
- Hb ([…], time 28 day): 13.5 g/dL
- Ht ([…], time 28 day): 41.1%
- Lym ([…], time 28 day): 82.2%
- MCH ([…], time 28 day): 18.5 pg
- MCHC ([…], time 28 day): 32.8%
- MCV ([…], time 28 day): 56.3 fL
- Mono ([…], time 28 day): 2.2%
- Neu ([…], time 28 day): 14.2%
- Plat ([…], time 28 day): 99.3 x10_4/uL
- RBC ([…], time 28 day): 729.2 x10_4/ul
- Ret ([…], time 28 day): 4.1%
- WBC ([…], time 28 day): 118.1 x10_2/uL
- KIDNEY_L ([…], time 7 day): 1.1 g
- KIDNEY_R ([…], time 7 day): 1.2 g
- KIDNEY_TOTAL ([…], time 7 day): 2.3 g
- KIDNEY_L ([…], time 14 day): 1.3 g
- KIDNEY_R ([…], time 14 day): 1.3 g
- KIDNEY_TOTAL ([…], time 14 day): 2.6 g
- KIDNEY_L ([…], time 28 day): 1.4 g
- KIDNEY_R ([…], time 28 day): 1.4 g
- KIDNEY_TOTAL ([…], time 28 day): 2.8 g
- LIVER ([…], time 7 day): 12.8 g
- LIVER ([…], time 14 day): 14.7 g
- LIVER ([…], time 28 day): 16 g
- A/G ([…], time 7 day): 0.9
- ALP ([…], time 7 day): 1570 IU/L
- ALT ([…], time 7 day): 38.2 IU/L
- AST ([…], time 7 day): 64.2 IU/L
- BUN ([…], time 7 day): 16.1 mg/dL
- CRE ([…], time 7 day): 0.2 mg/dL
- Ca ([…], time 7 day): 10.5 mg/dL
- Cl ([…], time 7 day): 103.4 meq/L
- DBIL ([…], time 7 day): 0 mg/dL
- GLC ([…], time 7 day): 195.2 mg/dL
- IP ([…], time 7 day): 6.6 mg/dL
- K ([…], time 7 day): 4.7 meq/L
- LDH ([…], time 7 day): 164.6 IU/L
- Na ([…], time 7 day): 140.6 meq/L
- PL ([…], time 7 day): 148.6 mg/dL
- RALB ([…], time 7 day): 2.8 g/dL
- TBIL ([…], time 7 day): 0 mg/dL
- TC ([…], time 7 day): 72.6 mg/dL
- TG ([…], time 7 day): 135.5 mg/dL
- TP ([…], time 7 day): 5.7 g/dL
- gamma-GTP ([…], time 7 day): 0.7 IU/L
- A/G ([…], time 14 day): 0.9
- ALP ([…], time 14 day): 1394.4 IU/L
- ALT ([…], time 14 day): 33.2 IU/L
- AST ([…], time 14 day): 64.6 IU/L
- BUN ([…], time 14 day): 17.9 mg/dL
- CRE ([…], time 14 day): 0.2 mg/dL
- Ca ([…], time 14 day): 10.4 mg/dL
- Cl ([…], time 14 day): 103.5 meq/L
- DBIL ([…], time 14 day): 0 mg/dL
- GLC ([…], time 14 day): 196.6 mg/dL
- IP ([…], time 14 day): 6.6 mg/dL
- K ([…], time 14 day): 4.2 meq/L
- LDH ([…], time 14 day): 170.6 IU/L
- Na ([…], time 14 day): 141.6 meq/L
- PL ([…], time 14 day): 156 mg/dL
- RALB ([…], time 14 day): 2.7 g/dL
- TBIL ([…], time 14 day): 0 mg/dL
- TC ([…], time 14 day): 72 mg/dL
- TG ([…], time 14 day): 191.9 mg/dL
- TP ([…], time 14 day): 5.8 g/dL
- gamma-GTP ([…], time 14 day): 0.8 IU/L
- A/G ([…], time 28 day): 0.8
- ALP ([…], time 28 day): 983.4 IU/L
- ALT ([…], time 28 day): 34.2 IU/L
- AST ([…], time 28 day): 64.6 IU/L
- BUN ([…], time 28 day): 16.3 mg/dL
- CRE ([…], time 28 day): 0.2 mg/dL
- Ca ([…], time 28 day): 10.3 mg/dL
- Cl ([…], time 28 day): 103.9 meq/L
- DBIL ([…], time 28 day): 0.004 mg/dL
- GLC ([…], time 28 day): 204.8 mg/dL
- IP ([…], time 28 day): 6.3 mg/dL
- K ([…], time 28 day): 4.1 meq/L
- LDH ([…], time 28 day): 179.6 IU/L
- Na ([…], time 28 day): 142.3 meq/L
- PL ([…], time 28 day): 133.2 mg/dL
- RALB ([…], time 28 day): 2.7 g/dL
- TBIL ([…], time 28 day): 0.002 mg/dL
- TC ([…], time 28 day): 60.2 mg/dL
- TG ([…], time 28 day): 133.7 mg/dL
- TP ([…], time 28 day): 6 g/dL
- gamma-GTP ([…], time 28 day): 0.9 IU/L
